Test [1] relates to ERMT (therapy resistant) xenografts. The experiment in a line: ERMT therapy resistant xenografts. In kind it is in vivo, nude mice. To be noted: 10 mg/kg/day oral. The method, then:
FIGS. 8A & 8B show the effect of TK41 (i.e., ERX-41) on therapy resistant cancer cells. ERMT (therapy resistant) xenografts (n=8) were established in nude mice and treated with vehicle (circle markers) or 10 mg/kg/day/oral ERX-41 (square markers).

A further test has as its target T1, LIPA (Homo sapiens, UniProt P38571).
T1 construct: expressed in transfected cells; host or cells: SUM-159 cells with LIPA KO, reconstituted with LIPA plasmid constructs
The experiment in a line: Biotinylated ERX-41 pulldown. Format: binding. To be noted: WT-LIPA and H274Y MT-LIPA, not DLXXLL or L242P MT-LIPA. The source says:
FIGS. 39A-N: (FIGS. 39A-E) Predicted binding mode of ERX-41 (colored in green) on the human lysosomal acid lipase (LAL, PDB code: 6V7N, LXXLL (SEQ ID NO: 1) domain colored in orange). (FIG. 39F) PDB structure of LAL protein showing relative positions of the catalytic domain (with H274Y MT) and the LXXLL (SEQ ID NO: 1) domain (L242P MT). (FIG. 39G) Evaluation of the effect of ERX-41 and lalistat (known lipase inhibitor) on lipase activity of parental SUM-159 (WT) and SUM-159 cells with LIPA KO. (FIG. 39H) Evaluation of basal lipase activity in parental SUM-159 (WT), SUM-159 cells with LIPA KO (KO), SUM-159 cells with LIPA KO and with reconstitution of either WT LIPA (KO+WT), H274Y MT-LIPA (KO+H274Y), DLXXLL (SEQ ID NO: 2) MT-LIPA (KO+DLXXLL (SEQ ID NO: 2)) or L242P MT-LIPA (KO+L242P). Protein expression of LAL and control vinculin in these cells are shown below (FIG. 391) Cellular lysates from described SUM-159 cells were incubated with biotinylated ERX-11 or biotinylated ERX-41 and then subject to a streptavidin column. Elutants were then evaluated for LIPA pulldown by western blotting. (FIG. 39J) Dose response curve to increasing concentrations of ERX-41 in described SUM-159 cells. (FIGS. 39K-M) Effect of vehicle or 1 μM ERX-41 on induction of UPR genes at the protein level (FIG. 39K) or RNA level (FIGS. 39L-M). […]

The next test deals with TNBC cells. The test is described as follows: De novo protein synthesis, puromycin labeled nascent proteins. In kind it is cell-based. To be noted: 4 h and 16 h. From the text: Total protein is shown on right with coomassie blue staining.
The basal level of expression of endoplasmic reticulum stress and unfolded protein response correlates with TK41 activity (FIG. 28). Modulation of the level of these stress proteins affects the activity of TK41. Thus, the basal level of expression of endoplasmic reticulum stress and unfolded protein response proteins may serve as a biomarker to predict response to TK41. […] Without wishing to be bound by any particular theory, the mechanism of action of TK41 may operate comprise targeting either ER or TLX and inducing endoplasmic reticulum stress, subsequent apoptosis, and blocking autophagic fusion (FIG. 30).

Each structure is given as a SMILES string.

T1 sequence (P38571 22-399): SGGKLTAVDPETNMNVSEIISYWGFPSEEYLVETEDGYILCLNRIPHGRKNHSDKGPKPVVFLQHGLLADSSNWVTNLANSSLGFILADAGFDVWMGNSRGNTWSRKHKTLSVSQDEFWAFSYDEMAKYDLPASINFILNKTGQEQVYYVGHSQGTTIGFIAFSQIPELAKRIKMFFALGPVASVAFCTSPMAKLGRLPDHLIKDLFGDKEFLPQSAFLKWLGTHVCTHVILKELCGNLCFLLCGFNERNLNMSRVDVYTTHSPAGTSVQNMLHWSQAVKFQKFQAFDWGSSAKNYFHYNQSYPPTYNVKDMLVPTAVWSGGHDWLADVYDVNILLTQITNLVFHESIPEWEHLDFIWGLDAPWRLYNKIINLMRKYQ

Take `CC(C)COc1cc(C(=O)Nc2ccc(C(=O)N[C@H]3CC[C@H](C)CC3)cc2OCC(C)C)ccc1NC(=O)c1ccc([N+](=O)[O-])c(OCCO)c1` [TK41]: in test [1], the “activity against ERMT tumors” value is recorded as “has activity against ERMT tumors”. Further, at LIPA, the “interaction with LIPA” value is reported as “direct interaction”. The “de novo protein synthesis” value in the test on TNBC cells is “shuts down de novo protein synthesis”; in the test on TNBC cells (listed as TK-41) it was “decreases global new protein synthesis”.

For the origin of these results see patent US12275685B2, “Oligo-benzamide analogs and their use in cancer treatment” (Board of Regents, The University of Texas System, priority 2018, dated 2025).
